# pIC50: −log10 of the molar value. Where two headings read alike, the source gives them in different places.
# How the values were obtained:
# human THP-1-FRβ cells = assay: Cell viability (XTT) assay, THP-1-FRβ; assay type: cell-based
# Description: (§1) All cells were grown in a folate-free RPMI1640 medium (Gibco BRL) (FFRPMI) containing 10% heat-inactivated fetal calf serum (HIFCS) and antibiotics, and maintained under a 5% CO2 atmosphere using standard cell culture techniques.
# (§2) After a 2 h exposure, the drug-containing media were replaced and the cells were allowed to incubate further for 72 h. The cell viability was assessed by adding XTT (2,3-bis(2-methoxy-4-nitro-5-sulfo-phenyl)-2H-tetrazolium-5-carboxanilide) to the culture medium for 3 h following the manufacturer's instructions. All results were expressed as % absorbance (minus background) relative to the untreated control cells. See results in FIG. 2A and FIG. 2B.
# (§3) Importantly, the observed anti-proliferative effect was 100% competable in the presence of excess FA, indicating a FR-specific mode of action.
# [1] = target: T1, human folate receptor (FR)-α (Homo sapiens, UniProt P15328); assay: Relative affinity assay (displacement of 3H-folic acid on KB cells); assay type: binding; conditions: 100 nM 3H-folic acid, 1 h at 37° C., normalized against 1 for FA
# T1 construct: endogenous in cells; host or cells: KB cells (human HeLa carcinoma contaminant)
# T1 sequence (P15328 25-234): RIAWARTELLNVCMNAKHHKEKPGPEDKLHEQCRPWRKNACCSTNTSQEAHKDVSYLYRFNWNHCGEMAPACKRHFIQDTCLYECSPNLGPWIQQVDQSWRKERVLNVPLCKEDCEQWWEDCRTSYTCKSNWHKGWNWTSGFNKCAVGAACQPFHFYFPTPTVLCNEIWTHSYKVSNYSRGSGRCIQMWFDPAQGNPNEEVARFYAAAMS
# Description: Cell lines utilized to evaluate EC2319 in in-vitro studies were as follows: KB human HeLa carcinoma contaminant expressing the human folate receptor (FR)-α, RAW264.7 mouse macrophage-derived tumor cells expressing a murine FR, THP-1-FRβ human monocytic leukemia engineered to express the human FR-β. All cells were grown in a folate-free RPMI1640 medium (Gibco BRL) (FFRPMI) containing 10% heat-inactivated fetal calf serum (HIFCS) and antibiotics, and maintained under a 5% CO2 atmosphere using standard cell culture techniques.
# EC2319 FR-binding affinity was determined in a relative affinity assay using KB cells as the source of FR. Briefly, KB cells (1×10^5 cells/well) were plated in 24-well plates at 18 to 24 h before use. The cells were then incubated for 1 h at 37° C. with 100 nM of ^3H-folic acid (Moravek Inc.) plus a series of 3.16-fold dilutions of EC2319 or FA at 0.01-31.6 μM in triplicates. At the end of incubation, the cells were washed 3 times with a phosphate-buffered saline (PBS, pH 7.4) and lysed for 5 min at room temperature in 0.5 mL of 0.25 N NaOH. 0.45 mL of the cell lysate was taken from each well and counted in a scintillation counter. […] See result in FIG. 1.
# [2] = 500 nM, 37° C., two hours
# Description: Blood samples were maintained at 37° C. for 30 minutes prior to spiking the analyte into 2.5 mL blood at 500 nM. At time 0 and every 30 minutes for two hours, blood samples were removed and centrifuged at 2000×g for 10 minutes to generate plasma. 50 μL aliquots of generated plasma were then transferred to a clean 1.2 mL plate containing N-Maleoyl-β-alanine, mannitol, and acetic acid. Samples were stored at −80° C. until being thawed for LC-MS/MS analysis.
# [3] = tested on: mouse RAW264.7 macrophage cells; assay: Cell viability (XTT) assay, RAW264.7; assay type: cell-based
# Description: as §1, §2, §3
# [4] = 2 h exposure, 72 h chase, XTT, read-out: relative IC50, inhibition of cell proliferation
smiles,measurement,setting,value
COC(=O)[C@H](CSSC(C)(C)[C@H](NC(=O)[C@H](CCC(=O)NC[C@H](O)[C@@H](O)[C@H](O)[C@H](O)CO)NC(=O)[C@H](CCC(=O)O)NC(=O)[C@H](CCC(=O)NC[C@H](O)[C@@H](O)[C@H](O)[C@H](O)CO)NC(=O)[C@H](CCC(=O)O)NC(=O)[C@H](CCC(=O)NC[C@H](O)[C@@H](O)[C@H](O)[C@H](O)CO)NC(=O)CC[C@H](NC(=O)c1ccc(NCc2cnc3nc(N)[nH]c(=O)c3n2)cc1)C(=O)O)C(=O)O)NC(=O)CC[C@H](NC(=O)c1ccc(NCc2cnc3nc(N)nc(N)c3n2)cc1)C(=O)O [EC2319],concentrations with cytostatic effect,human THP-1-FRβ cells,≥ 100 nM
same,anti-proliferative effect competable in the presence of excess FA,human THP-1-FRβ cells; 100-fold excess FA,100%
same,pIC50,human THP-1-FRβ cells; [4],~8.06
same,relative affinity,[1],0.493
same,"whole blood stability (percent remaining of intact conjugate, formation of EC1886)",[2]; fresh human blood,superior stability profile than EC1669
same,"whole blood stability (percent remaining of intact conjugate, formation of EC1886)",[2]; fresh rat blood,superior stability profile than EC1669
same,concentrations with cytostatic effect,[3],≥ 10 nM
same,anti-proliferative effect competable in the presence of excess FA,[3]; 100-fold excess FA,100%
same,pIC50,[3]; [4],~8.54

# Reference: patent publication US20180280528A1, “ANTIFOLATE CONJUGATES FOR TREATING INFLAMMATION” (ENDOCYTE, INC., priority 2015, published 2018)
